According to ChEMBL document CHEMBL4138276, “Hamigerans R and S: Nitrogenous Diterpenoids from the New Zealand Marine Sponge Hamigera tarangaensis” (J Nat Prod, 2018):
Calls of active or inactive are those of the source. No cut-off for these calls is given here.

System: HL-60
Experiment: Cytotoxicity against human HL60 cells assessed as inhibition of cell proliferation at <10 uM after 48 hrs by MTT assay
Assay type: functional, cell-based

Structure (SMILES) | inhibition
COC(=O)c1c([C@H]2[C@@H](C(C)C)CC[C@@]2(C)CC(=O)O)cc(C)c(Br)c1O | inactive
Cc1cc([C@H]2[C@@H](C(C)C)CC[C@@]2(C)CC(=O)O)c(C#N)c(O)c1Br | inactive
Cc1cc(O)c2c(c1)[C@H]1[C@@H](C(C)C)CC[C@@]1(C)[C@@H](O)[C@H](O)C2=O | inactive
COC(=O)[C@]1(O)C(=O)c2c(O)c(Br)c(C)c(Br)c2[C@H]2[C@@H](C(C)C)CC[C@]21C | inactive
Cc1cc2c3c(c1Br)O[C@]14N[C@]3(Oc3c(Br)c(C)cc(c31)[C@H]1[C@@H](C(C)C)CC[C@@]1(C)CC4=O)C(=O)C[C@]1(C)CC[C@H](C(C)C)[C@H]21 | inactive
COC(=O)[C@@]1(O)C(=O)[C@]2(C)CC[C@H](C(C)C)[C@@H]2c2cc(C)cc(O)c21 | inactive
Cc1cc(O)c2c(c1)[C@H]1[C@@H](C(C)C)CC[C@@]1(C)C(=O)C2=O | inactive
